Laboratory results: patent US10995177B2 (priority 2018, dated 2021)

Legend:
K. pneumoniae 9170 [1] = assay: In vivo efficacy (ED50/ED95) in bacteria-caused lung infection mouse model; parameters: species or system mice; settings: Klebsiella pneumoniae, 9170, ip
Experimental: In this regard, immunosuppressed mice (7 weeks old) were used for the following in vivo studies. Immunosuppression was induced by intraperitoneal injection of 200 mg/kg cyclophosphamide 4 days prior to infection. The mice were anesthetized by intraperitoneal injection of 1% pentobarbital (40 mg/kg, Sigma). The mice were then infected with K. pneumoniae 9170 to determine the minimum lethal dose for subsequent effective does and efficacy testing. Overnight cultures of K. pneumoniae 9170 were harvested and suspended in PBS. Subsequently, the cyclophosphamide-pretreated mice were intranasally injected with 25.0 μL of the bacterial suspension at designated doses (e.g., 1.0×10^8, 2.5×10^8, 5×10^8, 1.0×10^9, 2.0×10^9 CFU/mL, six mice per group). The minimum lethal dose (LD), the lowest concentration sufficient to cause 100% mortality, was determined from the survival rate of mice at 5 days post-infection by the BLISS method.
The effective doses ED50 and ED95 doses of the respective polymers and imipenem for comparison, were tested using a bacteria-caused lung infection mouse model as follows. Firstly, a bacterial suspension with the minimum lethal dose (25.0 μL) was introduced to the above described cyclophosphamide-pretreated mice intranasally. […] The number of surviving mice in each group was recorded for 5.0 day to estimate ED50 and ED95 via the BLISS method.

K. pneumoniae 9170 [2] = assay: Resistance development by serial passaging at sub-lethal concentrations; format: cell-based, Klebsiella pneumoniae
Experimental: To test bacterial resistance and resistance prevention, a sub-lethal dose (so as to not kill all bacteria) of the respective antimicrobials was repeatedly applied to K. pneumoniae samples for 24 hours at each passage, wherein the bacteria were allowed to replicate and/or mutate. MIC values of the respective antimicrobials were then measured after each repetition to monitor MIC changes. An increase in MIC value indicates development of resistance in the bacteria. In particular, samples of K. pneumoniae 9170 bacteria were first exposed to the respective antimicrobials (e.g., All polymers having Structures I, IV and V, imipenem and levofloxacin) for the determination of MICs as described above. Subsequently, 50 μL of bacteria from wells of 0.5×MIC were harvested and grown overnight, and then subjected to MIC determination for up to 20 similar serial passages (e.g., 20 single applications once a day for 20 days).
Unfortunately, antibiotic resistance has raised a global concern over the past few years.

[3] = tested on: MDR clinical isolates of K. pneumoniae, E. coli, A. baumannii, P. aeruginosa, E. faecium and MRSA; assay: MIC by broth microdilution against different types and strains of MDR clinically isolated bacteria; format: cell-based; settings: Gram-negative and Gram-positive MDR clinical isolates
Experimental: The MICs of the guanidinium functionalized polymers and the respective antibiotics against the clinical isolates were measured via the broth microdilution method. In accordance with the broth microdilution method, the MDR microbes including one or more strains of K. pneumoniae, E. coli, A. baumannii, P. aeruginosa, E. coli, E. faecium, and MRSA were harvested in mid exponential growth phase after grown overnight in Mueller-Hinton (MH) agar plates at 37° C. The antimicrobial agents were prepared in MH broth (MHB) at various concentrations. The bacteria suspensions were then diluted with phosphate-buffer saline (PBS, PH 7.4) to adjust the turbidity approximately to the Standard McFarland 0.6, which corresponds to the concentration of 1×10^8 colony-forming unit (CFU)/mL, after which the bacteria suspension was further diluted by 100-fold with MHB (1×10^6 CFU/mL). Subsequently, equal volumes (100 microliters (μL)) of bacterial suspension and agent solution prepared previously were mixed in each well of a 96-well plate and incubated for 18 h at 37° C. Broth containing bacteria alone was employed as the negative control, and each MIC was tested in triplicate.
To facilitate comparison, imipenem and vancomycin, typical first-line therapies against Gram-negative and Gram-positive pathogens, were employed as standards or control antibiotics.

| Compound | ED50 (K. pneumoniae 9170 [1]) [mg/kg] | increase of MIC (K. pneumoniae 9170 [2]; by the 11th passage) [times] | increase of MIC (K. pneumoniae 9170 [2]; by the 20th passage) [fold] | increase of MIC (K. pneumoniae 9170 [2]; by the 7th passage) [times] | spectrum of antibacterial activity [3] |
| --- | --- | --- | --- | --- | --- |
| C[C@@H](O)[C@H]1C(=O)N2C(C(=O)O)=C(SCCN=CN)C[C@H]12 [imipenem] | 5.93 | 2 | 4 | – | – |
| C[C@H]1COc2c(N3CCN(C)CC3)c(F)cc3c(=O)c(C(=O)O)cn1c23 [levofloxacin] | – | – | 16 | 2 | – |
| CN[C@H](CC(C)C)C(=O)N[C@H]1C(=O)N[C@@H](CC(N)=O)C(=O)N[C@H]2C(=O)N[C@H]3C(=O)N[C@H](C(=O)N[C@H](C(=O)O)c4cc(O)cc(O)c4-c4cc3ccc4O)[C@H](O)c3ccc(c(Cl)c3)Oc3cc2cc(c3O[C@@H]2O[C@H](CO)[C@@H](O)[C@H](O)[C@H]2O[C@H]2C[C@](C)(N)[C@H](O)[C@H](C)O2)Oc2ccc(cc2Cl)[C@H]1O [vancomycin] | – | – | – | – | only demonstrated efficacy against Gram-positive strains |
